Experimental data published in ChEMBL document CHEMBL6114995, “Discovery of novel imidazo[1,2-b]pyridazine derivatives as potent covalent inhibitors of CDK12/13” (Eur J Med Chem, 2025).
Calls of active or inactive are those of the source. The calls are words filed in the database; no cut-off is given here.

Columns and labels:
[1] = system: MDA-MB-231; experiment: cells; conditions: Homo sapiens, MDA-MB-231, 96 h
Description: Antiproliferative activity against human MDA-MB-231 cells assessed as inhibition of cell growth incubated for 96 hrs cellcounting-lite analysis

[2] = system: MDA-MB-468; experiment: cells; conditions: Homo sapiens, MDA-MB-468, 96 h
Description: Antiproliferative activity against human MDA-MB-468 cells assessed as inhibition of cell growth incubated for 96 hrs cellcounting-lite analysis

[3] = target: T1, Cyclin-dependent kinase 12 (Homo sapiens, UniProt Q9NYV4); experiment: Inhibition of CDK12 (unknown origin) using GSRTPMY-NH2 as substrate in presence of ATP by ADP-glo assay
Target sequence in this assay (Q9NYV4 whole entry): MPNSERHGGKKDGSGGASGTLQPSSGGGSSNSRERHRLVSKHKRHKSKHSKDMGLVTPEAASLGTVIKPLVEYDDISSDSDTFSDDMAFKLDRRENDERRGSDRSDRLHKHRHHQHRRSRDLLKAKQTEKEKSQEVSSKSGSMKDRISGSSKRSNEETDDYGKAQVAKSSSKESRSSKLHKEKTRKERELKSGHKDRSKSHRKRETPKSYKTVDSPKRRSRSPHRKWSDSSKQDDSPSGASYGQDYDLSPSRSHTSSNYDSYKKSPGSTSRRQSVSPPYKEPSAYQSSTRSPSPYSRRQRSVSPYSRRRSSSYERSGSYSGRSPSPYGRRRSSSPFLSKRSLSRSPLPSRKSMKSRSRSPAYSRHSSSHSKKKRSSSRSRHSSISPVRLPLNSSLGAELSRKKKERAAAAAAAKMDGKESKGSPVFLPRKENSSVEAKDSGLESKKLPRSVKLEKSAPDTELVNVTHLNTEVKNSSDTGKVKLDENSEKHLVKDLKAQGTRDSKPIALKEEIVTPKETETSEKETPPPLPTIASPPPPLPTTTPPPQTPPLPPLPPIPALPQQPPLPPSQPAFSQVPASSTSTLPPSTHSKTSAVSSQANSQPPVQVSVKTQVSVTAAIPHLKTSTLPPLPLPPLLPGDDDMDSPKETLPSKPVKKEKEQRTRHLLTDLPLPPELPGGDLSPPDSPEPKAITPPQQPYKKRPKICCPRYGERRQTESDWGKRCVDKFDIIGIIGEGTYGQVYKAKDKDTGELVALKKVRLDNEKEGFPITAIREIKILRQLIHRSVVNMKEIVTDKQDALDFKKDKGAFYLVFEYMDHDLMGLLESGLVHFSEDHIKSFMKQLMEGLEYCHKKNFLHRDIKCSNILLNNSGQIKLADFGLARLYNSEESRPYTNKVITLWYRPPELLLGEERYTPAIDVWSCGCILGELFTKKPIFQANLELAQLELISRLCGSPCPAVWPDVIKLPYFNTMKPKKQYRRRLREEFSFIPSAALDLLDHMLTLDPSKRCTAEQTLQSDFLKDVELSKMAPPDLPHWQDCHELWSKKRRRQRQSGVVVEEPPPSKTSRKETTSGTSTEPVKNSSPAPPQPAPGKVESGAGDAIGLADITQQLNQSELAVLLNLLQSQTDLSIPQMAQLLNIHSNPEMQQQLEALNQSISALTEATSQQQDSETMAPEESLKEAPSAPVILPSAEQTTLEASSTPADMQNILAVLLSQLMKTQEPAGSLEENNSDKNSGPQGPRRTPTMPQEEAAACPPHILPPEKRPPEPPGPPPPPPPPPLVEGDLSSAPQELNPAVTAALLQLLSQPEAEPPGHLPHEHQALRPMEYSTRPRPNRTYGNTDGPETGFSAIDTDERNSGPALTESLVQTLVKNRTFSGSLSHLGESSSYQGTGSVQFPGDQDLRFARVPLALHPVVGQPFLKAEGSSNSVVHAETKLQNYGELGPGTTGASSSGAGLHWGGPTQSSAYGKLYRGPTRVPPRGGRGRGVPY

[4] = target: T1, Cyclin-dependent kinase 12; conditions: dose 2000.0 nM
Target sequence in this assay (Q9NYV4 whole entry, looked up): as the sequence (Q9NYV4 whole entry) above
Description: Inhibition of CDK12 (unknown origin) at 2000 nM relative to control

[5] = target: T1, Cyclin-dependent kinase 12; conditions: dose 200.0 nM
Target sequence in this assay (Q9NYV4 whole entry, looked up): as the sequence (Q9NYV4 whole entry) above
Description: Inhibition of CDK12 (unknown origin) at 200 nM relative to control

[6] = target: T1, Cyclin-dependent kinase 12; conditions: dose 20.0 nM
Target sequence in this assay (Q9NYV4 whole entry, looked up): as the sequence (Q9NYV4 whole entry) above
Description: Inhibition of CDK12 (unknown origin) at 20 nM relative to control

[7] = target: T1, Cyclin-dependent kinase 12; experiment: Irreversible inhibition of CDK12 in human MDA-MB-231 cells at 10 uM pretreated with compound for 4 hrs followed by compound washout measured after 6 hrs; type: cell-based
Target sequence in this assay (Q9NYV4 whole entry, looked up): as the sequence (Q9NYV4 whole entry) above

[8] = target: T1, Cyclin-dependent kinase 12; experiment: Inhibition of CDK12 in human MDA-MB-231 cells assessed as reduction in RNA Pol II CTD level at Ser2 residue at 10 uM incubated for 4 hrs by Western blot analysis; type: cell-based
Target sequence in this assay (Q9NYV4 whole entry, looked up): as the sequence (Q9NYV4 whole entry) above

[9] = target: Protein cereblon/Cyclin-K (Homo sapiens, UniProt O75909+Q96SW2); experiment: PROTAC activity at CRBN/Cyclin K in human MDA-MB-231 cells assessed as reduction in cyclin K level incubated for 4 hrs by Western blot analysis; type: cell-based
Protein cereblon/Cyclin-K, sequence (O75909 whole entry): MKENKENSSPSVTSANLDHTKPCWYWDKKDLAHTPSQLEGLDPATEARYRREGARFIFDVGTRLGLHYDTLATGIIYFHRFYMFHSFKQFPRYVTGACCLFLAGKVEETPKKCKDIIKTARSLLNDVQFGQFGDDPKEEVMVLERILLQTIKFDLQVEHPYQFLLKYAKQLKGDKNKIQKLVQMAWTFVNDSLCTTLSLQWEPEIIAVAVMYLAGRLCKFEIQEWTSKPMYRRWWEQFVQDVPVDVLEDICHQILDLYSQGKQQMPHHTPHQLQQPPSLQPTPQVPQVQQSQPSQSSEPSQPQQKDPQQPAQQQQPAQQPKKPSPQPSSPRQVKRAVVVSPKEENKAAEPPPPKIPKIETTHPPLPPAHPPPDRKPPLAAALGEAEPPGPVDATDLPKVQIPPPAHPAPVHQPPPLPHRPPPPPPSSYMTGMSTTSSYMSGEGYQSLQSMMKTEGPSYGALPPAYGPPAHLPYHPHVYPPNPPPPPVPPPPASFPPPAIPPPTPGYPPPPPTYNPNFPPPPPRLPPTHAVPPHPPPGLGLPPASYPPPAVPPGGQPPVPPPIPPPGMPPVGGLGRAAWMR
Protein cereblon/Cyclin-K, sequence (Q96SW2 whole entry): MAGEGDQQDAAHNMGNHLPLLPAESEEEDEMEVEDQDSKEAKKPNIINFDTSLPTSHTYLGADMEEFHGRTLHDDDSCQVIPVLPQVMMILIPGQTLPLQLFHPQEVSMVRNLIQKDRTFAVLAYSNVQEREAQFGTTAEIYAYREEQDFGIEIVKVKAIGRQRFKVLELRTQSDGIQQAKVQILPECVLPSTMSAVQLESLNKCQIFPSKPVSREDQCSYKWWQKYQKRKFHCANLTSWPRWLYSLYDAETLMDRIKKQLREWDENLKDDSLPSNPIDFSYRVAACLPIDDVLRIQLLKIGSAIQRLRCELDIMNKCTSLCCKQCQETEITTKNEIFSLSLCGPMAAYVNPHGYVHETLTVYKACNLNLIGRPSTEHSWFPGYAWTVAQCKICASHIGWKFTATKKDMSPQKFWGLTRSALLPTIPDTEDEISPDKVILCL

[10] = system: MDA-MB-231; experiment: Effect on BRCA1 mRNA level in human MDA-MB-231 cells at 50 nM incubated for 6 hrs by qRT-PCR analysis; type: functional, cell-based
[11] = system: MDA-MB-231; experiment: Effect on FANCI mRNA level in human MDA-MB-231 cells at 50 nM incubated for 6 hrs by qRT-PCR analysis; type: functional, cell-based
[12] = system: MDA-MB-231; experiment: Effect on FANCD2 mRNA level in human MDA-MB-231 cells at 50 nM incubated for 6 hrs by qRT-PCR analysis; type: functional, cell-based
[13] = system: MDA-MB-231; experiment: Effect on RAD51 mRNA level in human MDA-MB-231 cells at 50 nM incubated for 6 hrs by qRT-PCR analysis; type: functional, cell-based
[14] = system: MDA-MB-231; experiment: Effect on SMARCC1 mRNA level in human MDA-MB-231 cells at 50 nM incubated for 6 hrs by qRT-PCR analysis; type: functional, cell-based
[15] = system: MDA-MB-231; experiment: Effect on ATM mRNA level in human MDA-MB-231 cells at 50 nM incubated for 6 hrs by qRT-PCR analysis; type: functional, cell-based
[16] = system: MDA-MB-231; experiment: Effect on ATR mRNA level in human MDA-MB-231 cells at 50 nM incubated for 6 hrs by qRT-PCR analysis; type: functional, cell-based
[17] = system: MDA-MB-231; experiment: Effect on ATM level in human MDA-MB-231 cells at 50 nM incubated for 24 hrs by Western blot analysis; type: functional, cell-based
[18] = system: MDA-MB-231; experiment: Effect on cleaved PARP level in human MDA-MB-231 cells at 50 nM incubated for 24 hrs by Western blot analysis; type: functional, cell-based
[19] = system: MDA-MB-231; experiment: Effect on RAD51 level in human MDA-MB-231 cells at 50 nM incubated for 24 hrs by Western blot analysis; type: functional, cell-based
[20] = system: MDA-MB-231; experiment: Effect on alpha-tubulin level in human MDA-MB-231 cells at 50 nM incubated for 24 hrs by Western blot analysis; type: functional, cell-based
[21] = target: T1, Cyclin-dependent kinase 12; experiment: Inhibition of full length FLAG-tagged CDK12 (unknown origin) at Cys1039 residue expressed in HEK293T cells at 50 uM incubated for 2 hrs by mass spectrometry analysis; type: cell-based
Target sequence in this assay (Q9NYV4 whole entry, looked up): as the sequence (Q9NYV4 whole entry) above

[22] = target: T1, Cyclin-dependent kinase 12; experiment: Inhibition of CDK12 in human MDA-MB-231 cells incubated for 4 hrs by immunoblotting analysis; type: cell-based
[23] = target: T1, Cyclin-dependent kinase 12; experiment: Inhibition of CDK12 in human MDA-MB-231 cells incubated for 4 hrs; type: cell-based
[24] = target: T1, Cyclin-dependent kinase 12; experiment: Binding affinity to CDK12 (714 to 1069 residues) in HEK293T cells assessed as increase in thermal stability at 5 uM measured for 6 hrs by cellular thermal shift assay; type: cell-based
[25] = target: T1, Cyclin-dependent kinase 12; experiment: Inhibition of CDK12 in human MDA-MB-231 cells at 100 nM measured upto 6 hrs by Western blot analysis; type: cell-based
[26] = target: T1, Cyclin-dependent kinase 12; experiment: Irreversible inhibition of CDK12 in human MDA-MB-231 cells at 100 nM pretreated with compound for 4 hrs followed by compound washout measured after 6 hrs; type: cell-based
[27] = target: T1, Cyclin-dependent kinase 12; experiment: Inhibition of CDK12 in human MDA-MB-231 cells pretreated with compound for 4 hrs followed by compound washout measured after 3 days; type: cell-based
Target sequence in this assay (Q9NYV4 whole entry): as above

[28] = target: T1, Cyclin-dependent kinase 12; experiment: Inhibition of CDK12 in human MDA-MB-231 cells incubated for 10 hrs; type: cell-based
Target sequence in this assay (Q9NYV4 whole entry): as above

[29] = target: T1, Cyclin-dependent kinase 12; experiment: Inhibition of CDK12 in human MDA-MB-231 cells assessed as reduction in RNA Pol II CTD level at Ser2 residue at 2000 nM incubated for 4 hrs by Western blot analysis; type: cell-based
[30] = target: Cyclin-dependent kinase 13 (Homo sapiens, UniProt Q14004); experiment: Inhibition of CDK13 (unknown origin) using GSRTPMY-NH2 as substrate in presence of ATP by ADP-glo assay
Cyclin-dependent kinase 13, sequence (Q14004 whole entry): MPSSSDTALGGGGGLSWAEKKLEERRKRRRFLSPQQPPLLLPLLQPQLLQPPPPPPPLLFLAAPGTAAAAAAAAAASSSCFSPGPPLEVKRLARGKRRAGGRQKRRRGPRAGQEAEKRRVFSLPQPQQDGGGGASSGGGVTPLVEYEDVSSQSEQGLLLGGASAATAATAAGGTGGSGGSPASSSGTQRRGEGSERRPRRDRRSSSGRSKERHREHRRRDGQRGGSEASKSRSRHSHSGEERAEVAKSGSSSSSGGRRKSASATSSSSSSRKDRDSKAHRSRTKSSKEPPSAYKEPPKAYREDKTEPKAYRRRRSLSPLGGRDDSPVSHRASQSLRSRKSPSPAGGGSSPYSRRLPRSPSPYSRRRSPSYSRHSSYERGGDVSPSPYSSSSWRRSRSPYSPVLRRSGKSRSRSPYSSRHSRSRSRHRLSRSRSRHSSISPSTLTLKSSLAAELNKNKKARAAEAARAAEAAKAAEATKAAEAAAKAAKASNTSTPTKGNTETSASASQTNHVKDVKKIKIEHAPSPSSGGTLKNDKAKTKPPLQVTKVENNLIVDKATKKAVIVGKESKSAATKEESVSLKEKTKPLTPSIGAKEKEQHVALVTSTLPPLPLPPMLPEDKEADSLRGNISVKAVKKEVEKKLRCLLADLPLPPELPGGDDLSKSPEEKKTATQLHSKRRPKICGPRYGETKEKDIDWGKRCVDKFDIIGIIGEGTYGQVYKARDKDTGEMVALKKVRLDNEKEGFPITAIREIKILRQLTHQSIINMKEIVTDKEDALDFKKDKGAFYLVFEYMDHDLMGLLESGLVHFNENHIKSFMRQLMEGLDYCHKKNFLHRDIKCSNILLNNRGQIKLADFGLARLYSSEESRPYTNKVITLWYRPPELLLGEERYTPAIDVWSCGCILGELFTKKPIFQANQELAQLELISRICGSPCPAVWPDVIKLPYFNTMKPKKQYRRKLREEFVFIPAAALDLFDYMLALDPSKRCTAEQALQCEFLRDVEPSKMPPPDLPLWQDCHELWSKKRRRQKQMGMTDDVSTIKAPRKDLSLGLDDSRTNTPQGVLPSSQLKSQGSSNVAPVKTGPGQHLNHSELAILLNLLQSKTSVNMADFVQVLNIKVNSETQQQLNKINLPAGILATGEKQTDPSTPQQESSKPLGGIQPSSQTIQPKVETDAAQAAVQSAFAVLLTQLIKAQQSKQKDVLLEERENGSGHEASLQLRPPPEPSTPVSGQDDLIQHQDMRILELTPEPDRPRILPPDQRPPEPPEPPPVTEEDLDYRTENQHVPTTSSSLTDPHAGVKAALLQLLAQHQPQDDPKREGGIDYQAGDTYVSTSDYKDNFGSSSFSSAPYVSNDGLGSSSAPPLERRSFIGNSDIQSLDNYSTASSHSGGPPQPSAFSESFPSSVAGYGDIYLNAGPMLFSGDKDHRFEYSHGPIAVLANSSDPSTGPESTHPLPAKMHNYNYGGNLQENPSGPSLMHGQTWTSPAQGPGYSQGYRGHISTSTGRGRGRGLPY

[31] = target: T1, Cyclin-dependent kinase 12; conditions: MDA-MB-231, dose 200.0 nM, time 4.0 hrs

Structure (SMILES): C=CC(=O)Nc1ccccc1-c1ccc2nc(CC(=O)Nc3cc(C4CC4)[nH]n3)cn2n1
- EC50 [1]: 0.352 µM
- EC50 [2]: 0.504 µM

Structure (SMILES): C=CC(=O)Nc1ccc(-c2ccc3nc(CC(=O)Nc4ncc(CC)s4)cn3n2)cc1F
- IC50 [3]: 0.0342 µM
- inhibition [4]: 92.1%
- inhibition [5]: 80.7%
- inhibition [6]: 29.9%
- EC50 [1]: 0.12 µM
- EC50 [2]: 0.108 µM

Structure (SMILES): C=CC(=O)Nc1ccc(-c2ccc3nc(CC(=O)Nc4cc(C5CC5)[nH]n4)cn3n2)cc1OC
- EC50 [1]: 0.0464 µM
- EC50 [2]: 0.0409 µM

Structure (SMILES): C=CC(=O)Nc1ccc(-c2ccc3nc(CC(=O)Nc4cc(C5CC5)[nH]n4)cn3n2)cc1
- EC50 [1]: 0.0673 µM
- EC50 [2]: 0.0364 µM

Structure (SMILES): C=CC(=O)Nc1c(C)cc(-c2ccc3nc(CC(=O)Nc4cc(C5CC5)[nH]n4)cn3n2)cc1C
- EC50 [1]: 0.0759 µM
- EC50 [2]: 0.0362 µM

Structure (SMILES): C=CC(=O)Nc1ccc(-c2ccc3nc(CC(=O)Nc4nc(C)c(C)s4)cn3n2)cc1F
- EC50 [1]: 3.15 µM
- EC50 [2]: 1.16 µM

Structure (SMILES): C=CC(=O)Nc1ccc(-c2ccc3nc(CC(=O)Nc4nc(C5CC5)cs4)cn3n2)cc1F
- EC50 [2]: 7.26 µM

Structure (SMILES): C=CC(=O)Nc1ccc(-c2ccc3nc(CC(=O)Nc4ncc(C(C)C)s4)cn3n2)cc1F
- EC50 [1]: 0.424 µM
- EC50 [2]: 0.608 µM

Structure (SMILES): C=CC(=O)Nc1cccc(-c2ccc3nc(CC(=O)Nc4cc(C5CC5)[nH]n4)cn3n2)c1
- EC50 [1]: 0.126 µM
- EC50 [2]: 0.0283 µM

Structure (SMILES): CN(C)C/C=C/C(=O)Nc1ccc(C(=O)N2CCC[C@@H](Nc3ncc(Cl)c(-c4c[nH]c5ccccc45)n3)C2)cc1
- IC50 [3]: 0.0141 µM
- inhibition [4]: 93.1%
- inhibition [5]: 92.7%
- inhibition [6]: 59.7%
- EC50 [1]: 0.0263 µM
- EC50 [2]: 0.0069 µM

Structure (SMILES): CCC(=O)Nc1ccc(-c2ccc3nc(CC(=O)Nc4cc(C5CCC5)[nH]n4)cn3n2)cc1F
- inhibition [7]: Active
- inhibition [8]: Active

Structure (SMILES): C=CC(=O)Nc1ccc(-c2ccc3nc(CC(=O)Nc4cc(C5CC5)[nH]n4)cn3n2)cc1C
- EC50 [1]: 0.0303 µM
- EC50 [2]: 0.0135 µM

Structure (SMILES): CCN(CC)CC(=O)N1CCN(c2nc(NCc3nc4cc(Cl)c(Cl)cc4[nH]3)c3ncn(CC)c3n2)CC1
- DC50 [9]: 0.00038 µM

Structure (SMILES): C=CC(=O)Nc1ccc(-c2ccc3nc(CC(=O)Nc4cc(C)ns4)cn3n2)cc1F
- EC50 [2]: 4.52 µM

Structure (SMILES): C=CC(=O)Nc1ccc(-c2ccc3nc(CC(=O)Nc4nc(C)cs4)cn3n2)cc1F
- EC50 [1]: 3.04 µM
- EC50 [2]: 1.3 µM

Structure (SMILES): C=CC(=O)Nc1ccc(-c2ccc3nc(CC(=O)Nc4cc(C5CC5)[nH]n4)cn3n2)cc1F
- Activity [10]: Active
- Activity [11]: Active
- Activity [12]: Active
- Activity [13]: Active
- Activity [14]: Active
- Activity [15]: Active
- Activity [16]: Active
- Activity [17]: Active
- Activity [18]: Active
- Activity [19]: Active
- Activity [20]: Active
- EC50 [1]: 0.0143 µM
- EC50 [2]: 0.0101 µM

Structure (SMILES): C=CC(=O)Nc1ccc(-c2ccc3nc(CC(=O)Nc4ncc(C(C)(C)C)s4)cn3n2)cc1F
- EC50 [1]: 0.219 µM
- EC50 [2]: 0.354 µM

Structure (SMILES): C=CC(=O)Nc1ccc(-c2ccc3nc(CC(=O)Nc4cc(C)no4)cn3n2)cc1F
- EC50 [1]: 2.93 µM

Structure (SMILES): Cn1cc(-n2cnc3c(NCc4nc5cc(Cl)c(Cl)cc5[nH]4)nc(N4CCOCC4)nc32)cn1
- EC50 [1]: 0.0207 µM
- EC50 [2]: 0.0203 µM

Structure (SMILES): C=CC(=O)Nc1c(F)cc(-c2ccc3nc(CC(=O)Nc4cc(C5CC5)[nH]n4)cn3n2)cc1F
- EC50 [1]: 0.131 µM
- EC50 [2]: 0.197 µM

Structure (SMILES): C=CC(=O)Nc1ccc(-c2ccc3nc(CC(=O)Nc4cc(C(C)(C)C)on4)cn3n2)cc1F
- EC50 [1]: 2.86 µM

Structure (SMILES): C=CC(=O)Nc1ccc(-c2ccc3nc(CC(=O)Nc4cc(C5CCC5)[nH]n4)cn3n2)cc1F
- IC50 [3]: 0.0155 µM
- inhibition [21]: Active
- inhibition [22]: Active
- inhibition [23]: Active
- Activity [24]: Active
- inhibition [25]: Active
- inhibition [26]: Active
- EC50 [27]: 0.04 µM
- EC50 [28]: 0.00538 µM
- inhibition [29]: Active
- Activity [10]: Active
- Activity [11]: Active
- Activity [12]: Active
- Activity [13]: Active
- Activity [14]: Active
- Activity [15]: Active
- Activity [16]: Active
- Activity [17]: Active
- Activity [18]: Active
- Activity [19]: Active
- Activity [20]: Active
- IC50 [30]: 0.0122 µM
- inhibition [4]: 92.5%
- inhibition [5]: 93%
- inhibition [6]: 73.8%
- inhibition [31]: 100%
- EC50 [1]: 0.005 µM
- EC50 [2]: 0.006 µM

Structure (SMILES): C=CC(=O)Nc1ccc(-c2ccc3nc(CC(=O)Nc4cc(C5CC5)[nH]n4)cn3n2)cc1Cl
- EC50 [1]: 0.0849 µM
- EC50 [2]: 0.0479 µM
